Laboratory results: patent publication US20200354327A1, “COMPOUND HAVING STAT3 INHIBITORY ACTIVITY AND USE THEREOF” (CYTUS H&B CO., LTD., priority 2017, published 2020)

molecular target: STAT3 (Homo sapiens, UniProt P40763); test: Western blot of the 46 Table 1 compounds in Hodgkin lymphoma cell lines L540 and HDLM-2; format: cell-based; design: endogenous in cells; host or cells: L540, HDLM-2, U87-MG, MDA-MB-231, further human glioblastoma and breast cancer lines; conditions: L540 and HDLM-2
Procedure: The human cancer cell lines used in the experiment were U87-MG (human malignant glioblastoma) and MDA-MB-231 (human malignant breast cancer) cell lines, and various kinds of human-derived blood and solid cancer cells including these human cancer cell lines were cultured as previously described (Jung J E, et al. FASEB J. 19, 1296-1298 (2005)). The human Hodgkin lymphoma cancer cell lines L540 and HLDM-2 used in the experiment were obtained from the German Collection of Microorganism and Cell Cultures (DSMZ, Germany) and cultured using RPMI 1640 medium containing 20% FBS in a 5% CO2 incubator at a temperature of 37° C.
Western blot analysis was performed (Jung J E, et al. FASEB J. 19, 1296-1298 (2005)). The cells were washed two times with PBS and suspended in the lysate (50 mM Tris-HCl, pH 7.4, 350 mM NaCl, 1% Triton X-100, 0.5% Nonidet P-40, 10% glycerol, 0.1% SDS, 1 mM EDTA, 1 mM EGTA, 1 mM Na3VO4, 1 mM PMSF, protease and phosphorylation inhibitor) and the cell membrane and nuclear membrane were crushed to lyse the cells. The insoluble protein fraction was removed by centrifugation, and the supernatant was mixed with SDS electrophoresis buffer and electrophoresis (SDS-PAGE) was performed to detect the protein with the desired antibody and to confirm the protein expression level.

STAT3, sequence (P40763 whole entry): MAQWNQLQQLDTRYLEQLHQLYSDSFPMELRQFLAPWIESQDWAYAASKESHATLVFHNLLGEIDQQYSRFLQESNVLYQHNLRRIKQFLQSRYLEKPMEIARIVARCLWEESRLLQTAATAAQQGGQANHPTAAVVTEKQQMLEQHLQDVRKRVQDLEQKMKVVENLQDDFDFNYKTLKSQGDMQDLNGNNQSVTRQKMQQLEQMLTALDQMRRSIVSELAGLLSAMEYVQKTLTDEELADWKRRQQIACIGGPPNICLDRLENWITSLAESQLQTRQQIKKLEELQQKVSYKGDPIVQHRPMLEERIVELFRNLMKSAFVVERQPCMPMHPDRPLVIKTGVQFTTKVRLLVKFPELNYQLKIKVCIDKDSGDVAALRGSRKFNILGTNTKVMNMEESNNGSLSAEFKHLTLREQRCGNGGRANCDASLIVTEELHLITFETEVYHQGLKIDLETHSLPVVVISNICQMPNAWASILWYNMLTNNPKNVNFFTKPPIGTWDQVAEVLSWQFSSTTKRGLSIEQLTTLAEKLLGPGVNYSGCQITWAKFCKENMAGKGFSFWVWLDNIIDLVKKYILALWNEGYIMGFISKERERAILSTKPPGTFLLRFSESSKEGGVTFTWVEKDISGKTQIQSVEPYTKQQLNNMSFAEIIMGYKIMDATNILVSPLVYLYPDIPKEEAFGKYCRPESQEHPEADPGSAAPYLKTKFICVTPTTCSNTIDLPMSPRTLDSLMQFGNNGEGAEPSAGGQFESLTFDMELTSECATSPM

How did the “STAT3 inhibitory efficacy, first screening” value turn out when `Cl.Cl.NCCc1nc2ccccc2c(=O)[nH]1.O` [compound 1, 2-(2-aminoethyl)-4(3H)-quinazolinone dihydrochloride hydrate] was run?
Its value is “judged to exert superior STAT3 inhibitory efficacy”.

Which “STAT3 inhibitory efficacy, first screening” value does the source give for `O=S(=O)(NCCc1nc2ccccc2[nH]1)c1ccccc1` [compound 4, N-[2-(lH-benzimidazol-2-yl)ethyl]benzenesulfonamide] here?
Its value is “judged to exert superior STAT3 inhibitory efficacy”.

How did the “STAT3 inhibitory efficacy, first screening” value turn out when `O=C1NCSC1=Cc1ccccc1O` [compound 5, 5-(2-hydroxybenzylidene)-l,3-thiazolidin-4-one] was run?
Its value is “judged to exert superior STAT3 inhibitory efficacy”.

Which “STAT3 inhibitory efficacy, first screening” value does the source give for `O=S(=O)(NCc1nc2ccccc2[nH]1)c1ccccc1` [compound 6, N-(1H-benzimidazol-2-ylmethyl)benzenesulfonamide] here?
Its value is “judged to exert superior STAT3 inhibitory efficacy”.

With `O=C(O)C1Cc2c([nH]c3ccccc23)C(c2ccc(O)cc2)N1` (stereo not drawn) [compound 8, l-(4-hydroxyphenyl)-2,3,4,9-tetrahydro-lH-beta-carboline-3-carboxylic acid] as the molecule, how does the “STAT3 inhibitory efficacy, first screening” value read?
The value was “judged to exert superior STAT3 inhibitory efficacy”.

How did the “STAT3 inhibitory efficacy, first screening” value turn out when `O=C(Nc1nc(O)nc(C=Cc2ccccc2)n1)NS(=O)(=O)c1ccccc1Cl` [compound 9, 2-chloro-N-({[4-hydroxy-6-(2-phenylvinyl)-l,3,5-triazin-2-yl]amino]carbonyl)benzenesulfonamide] was run?
The value was “judged to exert superior STAT3 inhibitory efficacy”.

`O=C(O)c1cccc(NS(=O)(=O)c2cccc(C(F)(F)F)c2)c1` [compound 11, 3-({[3-(trifluoromethyl)phenyl]sulfonyl}amino)benzoic acid] was tested. Which “STAT3 inhibitory efficacy, first screening” value did it give?
The value was “judged to exert superior STAT3 inhibitory efficacy”.

Which “STAT3 inhibitory efficacy, first screening” value does the source give for `O=S(=O)(NCc1nc2ccccc2[nH]1)c1ccc(Cl)cc1` [compound 14, N-(1H-benzimidazol-2-ylmethyl)-4-chlorobenzenesulfonamide] here?
Its value is “judged to exert superior STAT3 inhibitory efficacy”.

With `CC1CN(Cc2nc3c([nH]2)c(=O)[nH]c(=O)n3C)CC(C)O1` (centres unmarked) [compound 16, 8-[(2,6-dimethyl-4-morpholinyl)methyl]-3-methyl-3,7-dihydro-lH-purine-2,6-dione] as the molecule, how does the “STAT3 inhibitory efficacy, first screening” value read?
The value was “judged to exert superior STAT3 inhibitory efficacy”.

Which “STAT3 inhibitory efficacy, first screening” value does the source give for `CC(CNCc1nc2ccccc2[nH]1)c1ccccc1` (centres unmarked) [compound 18, (1H-benzimidazol-2-ylmethyl)(2-phenylpropyl)amine] here?
The value was “judged to exert superior STAT3 inhibitory efficacy”.

Which “STAT3 inhibitory efficacy, first screening” value does the source give for `CCS(=O)(=O)Nc1cccc(C2=NN(S(C)(=O)=O)C(c3cccc(F)c3)C2)c1` (stereo not drawn) [compound 19, N-{3-[5-(3-fluorophenyl)-l-(methylsulfonyl)-4,5-dihydro-lH-pyrazol-3-yl]phenyl}ethanesulfonamide] here?
Its value is “judged to exert superior STAT3 inhibitory efficacy”.

For `O=S(=O)(NCc1nc2ccccc2[nH]1)c1ccc(Cl)c(Cl)c1` [compound 20, N-(lH-benzimidazol-2-ylmethyl)-3,4-dichlorobenzenesulfonamide], which “STAT3 inhibitory efficacy, first screening” value is on record?
The value was “judged to exert superior STAT3 inhibitory efficacy”.

`O=C(Nc1ccc(C(=O)N2CCNC2=O)cc1)c1cccs1` [compound 21, N-{4-[(2-oxo-l-imidazolidinyl)carbonyl]phenyl}-2-thiophenecarboxamide] was tested. Which “STAT3 inhibitory efficacy, first screening” value did it give?
Its value is “judged to exert superior STAT3 inhibitory efficacy”.

Which “STAT3 inhibitory efficacy, first screening” value does the source give for `O=C(Nc1ccc(C(=O)N2CCNC2=O)cc1)c1ccccc1` [compound 22, N-{4-[(2-oxo-l-imidazolidinyl)carbonyl]phenyl}benzamide] here?
The value was “judged to exert superior STAT3 inhibitory efficacy”.

`O=C(COc1ccc(Cl)cc1S(=O)(=O)NC1CC1)N1CCOCC1` [compound 23, 5-chloro-N-cyclopropyl-2-[2-(4-morpholinyl)-2-oxoethoxy]benzenesulfonamide] was tested. Which “STAT3 inhibitory efficacy, first screening” value did it give?
Its value is “judged to exert superior STAT3 inhibitory efficacy”.

With `NC(=O)c1cc(S(=O)(=O)Nc2ccc(O)cc2)cs1` [compound 24, 4-{[(4-hydroxyphenyl)amino]sulfonyl}-2-thiophenecarboxamide] as the molecule, how does the “STAT3 inhibitory efficacy, first screening” value read?
Its value is “judged to exert superior STAT3 inhibitory efficacy”.

With `O=C1CN(C(=O)C=Cc2ccccc2)CCN1` [compound 27, 4-cinnamoyl-2-piperazinone] as the molecule, how does the “STAT3 inhibitory efficacy, first screening” value read?
Its value is “judged to exert superior STAT3 inhibitory efficacy”.

How did the “STAT3 inhibitory efficacy, first screening” value turn out when `Cc1ccccc1NC(=O)c1cccc(NS(C)(=O)=O)c1` [compound 28, N-(2-methylphenyl)-3-((methylsulfonyl)amino]benzamide] was run?
Its value is “judged to exert superior STAT3 inhibitory efficacy”.

How did the “STAT3 inhibitory efficacy, first screening” value turn out when `O=C(Nc1ccc(F)cc1)Nc1cccc(C(=O)NCc2ccccc2)c1` [compound 29, N-benzyl-3-({[(4-fluorophenyl)amino]carbonyl}amino)benzamide] was run?
The value was “judged to exert superior STAT3 inhibitory efficacy”.

Which “STAT3 inhibitory efficacy, first screening” value does the source give for `CC(C)(C)NC(=O)c1cccc(NC(=O)Nc2ccccc2)c1` [compound 30, 3-[(anilinocarbonyl)amino]-N-(tert-butyl)benzamide] here?
The value was “judged to exert superior STAT3 inhibitory efficacy”.

Which “STAT3 inhibitory efficacy, first screening” value does the source give for `Cc1ccc(S(=O)(=O)NCCc2nc3ccccc3[nH]2)cc1` [compound 31, N-[2-(1H-benzimidazol-2-yl)ethyl]-4-methylbenzenesulfonamide] here?
The value was “judged to exert superior STAT3 inhibitory efficacy”.

How did the “STAT3 inhibitory efficacy, first screening” value turn out when `Cc1ccc(S(=O)(=O)NCc2nc3ccccc3[nH]2)cc1` [compound 32, N-(1H-benzimidazol-2-ylmethyl)-4-methylbenzenesulfonamide] was run?
The value was “judged to exert superior STAT3 inhibitory efficacy”.

For `CS(=O)(=O)Nc1cccc(C(=O)NCc2ccncc2)c1` [compound 33, 3-[(methylsulfonyl)amino]-N-(4-pyridinylmethyl)benzamide], which “STAT3 inhibitory efficacy, first screening” value is on record?
The value was “judged to exert superior STAT3 inhibitory efficacy”.

Which “STAT3 inhibitory efficacy, first screening” value does the source give for `Brc1cc2c(cc1CSc1nc3cccnc3[nH]1)OCO2` [compound 34, 2-{[(6-bromo-l,3-benzodioxol-5-yl)methyl]thio}-3H-imidazo[4,5-b]pyridine] here?
Its value is “judged to exert superior STAT3 inhibitory efficacy”.

For `O=C(O)[C@@H]1CCCN1S(=O)(=O)c1ccc2[nH]c(=O)c(=O)[nH]c2c1` [compound 35, l-[(2,3-dioxo-l,2,3,4-tetrahydro-6-quinoxalinyl)sulfonyl]proline], which “STAT3 inhibitory efficacy, first screening” value is on record?
Its value is “judged to exert superior STAT3 inhibitory efficacy”.

Which “STAT3 inhibitory efficacy, first screening” value does the source give for `CCc1ccc(OC)c(S(=O)(=O)Nc2cccc(O)c2)c1` [compound 36, 5-ethyl-N-(3-hydroxyphenyl)-2-methoxybenzenesulfonamide] here?
The value was “judged to exert superior STAT3 inhibitory efficacy”.

For `OCCCNc1nc(Nc2cccc(O)c2)nc2ccccc12` [compound 37, 3-({4-[(3-hydroxypropyl)amino]-2-quinazolinyl}amino)phenol], which “STAT3 inhibitory efficacy, first screening” value is on record?
Its value is “judged to exert superior STAT3 inhibitory efficacy”.

For `O=C(Nc1ccc(Cc2ccc(NC(=O)C(c3ccccc3)c3ccccc3)c(O)c2)cc1O)C(c1ccccc1)c1ccccc1` [compound 38, N,N′-[methylenebis(2-hydroxy-4,1-phenylene)]bis(2,2-diphenylacetamide)], which “STAT3 inhibitory efficacy, first screening” value is on record?
Its value is “judged to exert superior STAT3 inhibitory efficacy”.

With `COc1ccccc1C(=O)Nc1ccc(C(=O)N2CCNC2=O)cc1` [compound 41, 2-methoxy-N-{4-[(2-oxo-l-imidazolidinyl)carbonyl]phenyl}benzamide] as the molecule, how does the “STAT3 inhibitory efficacy, first screening” value read?
The value was “judged to exert superior STAT3 inhibitory efficacy”.

For `Cc1[nH]c2ccc(-c3n[nH]c(=S)n3C)cc2c1C` [compound 42, 5-(2,3-dimethyl-lH-indol-5-yl)-4-methyl-2,4-dihydro-3H-l,2,4-triazole-3-thione], which “STAT3 inhibitory efficacy, first screening” value is on record?
The value was “judged to exert superior STAT3 inhibitory efficacy”.

How did the “STAT3 inhibitory efficacy, first screening” value turn out when `O=C(Nc1cccnc1)c1cccc(NS(=O)(=O)c2ccccc2)c1` [compound 43, 3-[(phenylsulfonyl)amino]-N-3-pyridinylbenzamide] was run?
The value was “judged to exert superior STAT3 inhibitory efficacy”.

How did the “STAT3 inhibitory efficacy, first screening” value turn out when `CS(=O)(=O)Nc1cccc(C(=O)Nc2ccccc2C(=O)NCc2cccnc2)c1` [compound 44, 2-({3-[(methylsulfonyl)amino]benzoyl]amino)-N-(3-pyridinylmethyl)benzamide] was run?
The value was “judged to exert superior STAT3 inhibitory efficacy”.

How did the “STAT3 inhibitory efficacy, first screening” value turn out when `O=C(NCC1CCCO1)C1CC(=O)N(c2ccc(O)cc2)C1` (centres unmarked) [compound 45, 1-(4-hydroxyphenyl)-5-oxo-N-(tetrahydro-2-furanylmethyl)-3-pyrrolidinecarboxamide] was run?
The value was “judged to exert superior STAT3 inhibitory efficacy”.

same assay, conditions: L540 and HDLM-2, 50 μM

For `OCCCNc1nc(Nc2cccc(O)c2)nc2ccccc12` [compound 37, 3-({4-[(3-hydroxypropyl)amino]-2-quinazolinyl}amino)phenol], which “STAT3 inhibitory efficacy, secondary screening” value is on record?
The value was “judged to exert superior STAT3 inhibitory efficacy”.

same assay, conditions: L540 and HDLM-2, various concentrations

Which “phosphorylation of STAT tyrosine 705” value does the source give for `OCCCNc1nc(Nc2cccc(O)c2)nc2ccccc12` [compound 37, 3-({4-[(3-hydroxypropyl)amino]-2-quinazolinyl}amino)phenol] here?
The value was “significantly inhibited the phosphorylation of STATdml tyrosine 705 in a concentration-dependent manner”.
